Measurements taken from US20240425500A1 (priority 2021, published 2024).

Assays:
Pythium ultimum = Pythium ultimum / liquid culture (seedling damping off); type: cell-based; settings: Globisporangium ultimum, liquid culture in PDB, 24 °C, 2-3 days after application, read-out: control of Pythium ultimum (inhibition of growth, photometric) compared to untreated control
Method: Pythium ultimum/Liquid Culture (Seedling Damping Off):
Mycelia fragments and oospores of a newly grown liquid culture of the fungus are directly mixed into nutrient broth (PDB potato dextrose broth). After placing a (DMSO) solution of test compound into a microtiter plate (96-well format), the nutrient broth containing the fungal mycelia/spore mixture is added. The test plates are incubated at 24° C. and the inhibition of growth is determined photometrically 2-3 days after application.

Plasmopara viticola = assay: whole plant or invertebrate; type: in vivo; settings: foliar, read-out: control of Plasmopara viticola compared to untreated control
Phytophthora infestans = assay: whole plant or invertebrate; type: in vivo; settings: in Solanum lycopersicum, foliar, read-out: control of Phytophthora infestans compared to untreated control

Structure (SMILES): COC(=O)Nc1ccc(-c2cnc3ccc(C(=O)N(C)c4ccc(Cl)cc4)cn23)cc1 [Compound 2, methyl N-[4-[6-[(4-chlorophenyl)-methyl-carbamoyl]imidazo[1,2-a]pyridin-3-yl]phenyl]carbamate]
- inhibition at 20 ppm (Pythium ultimum): ≥ 80%
- pest or weed control at 200 ppm (Plasmopara viticola): ≥ 80%
- pest or weed control at 200 ppm (Phytophthora infestans): ≥ 80%

Structure (SMILES): CC(=O)Nc1ccc(-c2cnc3ccc(C(=O)N(C)c4ccc(Cl)cc4)cn23)cn1 [Compound 3, 3-(6-acetamido-3-pyridyl)-N-(4-chlorophenyl)-N-methyl-imidazo [1,2-a]pyridine-6-carboxamide]
- inhibition at 20 ppm (Pythium ultimum): ≥ 80%
- pest or weed control at 200 ppm (Plasmopara viticola): ≥ 80%
- pest or weed control at 200 ppm (Phytophthora infestans): ≥ 80%

Structure (SMILES): COC(=O)Nc1ccc(-c2cnc3ccc(C(=O)N(C)c4ccc(Cl)cc4)cn23)cn1 [Compound 4, methyl N-[5-[6-[(4-chlorophenyl)-methyl-carbamoyl]imidazo[1,2-a]pyridin-3-yl]-2-pyridyl]carbamate]
- inhibition at 20 ppm (Pythium ultimum): ≥ 80%
- pest or weed control at 200 ppm (Plasmopara viticola): ≥ 80%
- pest or weed control at 200 ppm (Phytophthora infestans): ≥ 80%

Structure (SMILES): COC(=O)Nc1ccc(-c2cnc3ccc(C(=O)N(C)c4ccc(C#N)cc4)cn23)cc1 [Compound 6, methyl N-[4-[6-[(4-cyanophenyl)-methyl-carbamoyl]imidazo[1,2-a]pyridin-3-yl]phenyl]carbamate]
- inhibition at 20 ppm (Pythium ultimum): ≥ 80%
- pest or weed control at 200 ppm (Plasmopara viticola): ≥ 80%
- pest or weed control at 200 ppm (Phytophthora infestans): ≥ 80%

Structure (SMILES): COC(=O)Nc1ccc(-c2cnc3ccc(C(=O)N(C)c4cccc(OC)c4)cn23)cc1 [Compound 7, methyl N-[4-[6-[(3-methoxyphenyl)-methyl-carbamoyl]imidazo[1,2-a]pyridin-3-yl]phenyl]carbamate]
- inhibition at 20 ppm (Pythium ultimum): ≥ 80%
- pest or weed control at 200 ppm (Plasmopara viticola): ≥ 80%
- pest or weed control at 200 ppm (Phytophthora infestans): ≥ 80%

Structure (SMILES): COC(=O)Nc1ccc(-c2cnc3ccc(C(=O)N(C)c4ccc(F)cc4)cn23)cc1 [Compound 11, methyl N-[4-[6-[(4-fluorophenyl)-methyl-carbamoyl]imidazo[1,2-a]pyridin-3-yl]phenyl]carbamate]
- inhibition at 20 ppm (Pythium ultimum): ≥ 80%
- pest or weed control at 200 ppm (Plasmopara viticola): ≥ 80%
- pest or weed control at 200 ppm (Phytophthora infestans): ≥ 80%

Structure (SMILES): COC(=O)Nc1ccc(-c2cnc3ccc(C(=O)N(C)c4ccc(C#N)cc4)cn23)cn1 [Compound 15, methyl N-[5-[6-[(4-cyanophenyl)-methyl-carbamoyl]imidazo[1,2-a]pyridin-3-yl]-2-pyridyl]carbamate]
- inhibition at 20 ppm (Pythium ultimum): ≥ 80%
- pest or weed control at 200 ppm (Plasmopara viticola): ≥ 80%
- pest or weed control at 200 ppm (Phytophthora infestans): ≥ 80%

Structure (SMILES): COC(=O)Nc1ccc(-c2cnc3c(C)cc(C(=O)N(C)c4ccc(Cl)cc4)cn23)cc1 [Compound 19, methyl N-[4-[6-[(4-chlorophenyl)-methyl-carbamoyl]-8-methyl-imidazo[1,2-a]pyridin-3-yl]phenyl]carbamate]
- inhibition at 20 ppm (Pythium ultimum): ≥ 80%
- pest or weed control at 200 ppm (Plasmopara viticola): ≥ 80%
- pest or weed control at 200 ppm (Phytophthora infestans): ≥ 80%

Structure (SMILES): COC(=O)Nc1ccc(-c2cnc3ccc(C(=O)N(C)c4ccc(F)cc4)cn23)cn1 [Compound 25, methyl N-[5-[6-[(4-fluorophenyl)-methyl-carbamoyl]imidazo[1,2-a]pyridin-3-yl]-2-pyridyl]carbamate]
- inhibition at 20 ppm (Pythium ultimum): ≥ 80%
- pest or weed control at 200 ppm (Plasmopara viticola): ≥ 80%
- pest or weed control at 200 ppm (Phytophthora infestans): ≥ 80%

Structure (SMILES): COC(=O)Nc1ccc(-c2cnc3ccc(C(=O)N(C)c4ccnc(OC)c4)cn23)cc1 [Compound 26, methyl N-[4-[6-[(2-methoxy-4-pyridyl)-methyl-carbamoyl]imidazo[1,2-a]pyridin-3-yl]phenyl]carbamate]
- inhibition at 20 ppm (Pythium ultimum): ≥ 80%
- pest or weed control at 200 ppm (Plasmopara viticola): ≥ 80%
- pest or weed control at 200 ppm (Phytophthora infestans): ≥ 80%

Structure (SMILES): COC(=O)Nc1ccc(-c2cnc3ccc(C(=O)N(c4ccc(Cl)cc4)C4CC4)cn23)cc1 [Compound 27, methyl N-[4-[6-[(4-chlorophenyl)-cyclopropyl-carbamoyl]imidazo[1,2-a]pyridin-3-yl]phenyl]carbamate]
- inhibition at 20 ppm (Pythium ultimum): ≥ 80%
- pest or weed control at 200 ppm (Plasmopara viticola): ≥ 80%
- pest or weed control at 200 ppm (Phytophthora infestans): ≥ 80%

Structure (SMILES): COC(=O)Nc1ccc(-c2cnc3ccc(C(=O)N(CC#N)c4ccc(Cl)cc4)cn23)cc1 [Compound 31, methyl N-[4-[6-[(4-chlorophenyl)-(cyanomethyl)carbamoyl]imidazo[1,2-a]pyridin-3-yl]phenyl]carbamate]
- inhibition at 20 ppm (Pythium ultimum): ≥ 80%
- pest or weed control at 200 ppm (Plasmopara viticola): ≥ 80%
- pest or weed control at 200 ppm (Phytophthora infestans): ≥ 80%

Structure (SMILES): CCN(C(=O)c1ccc2ncc(-c3ccc(NC(=O)OC)cc3)n2c1)c1ccc(Cl)cc1 [Compound 32, methyl N-[4-[6-[(4-chlorophenyl)-ethyl-carbamoyl]imidazo[1,2-a]pyridin-3-yl]phenyl]carbamate]
- inhibition at 20 ppm (Pythium ultimum): ≥ 80%
- pest or weed control at 200 ppm (Plasmopara viticola): ≥ 80%
- pest or weed control at 200 ppm (Phytophthora infestans): ≥ 80%

Structure (SMILES): COC(=O)Nc1ccc(-c2cnc3c(OC)cc(C(=O)N(C)c4ccc(Cl)cc4)cn23)cc1 [Compound 37, methyl N-[4-[6-[(4-chlorophenyl)-methyl-carbamoyl]-8-methoxy-imidazo[1,2-a]pyridin-3-yl]phenyl]carbamate]
- inhibition at 20 ppm (Pythium ultimum): ≥ 80%
- pest or weed control at 200 ppm (Plasmopara viticola): ≥ 80%
- pest or weed control at 200 ppm (Phytophthora infestans): ≥ 80%

Structure (SMILES): COC(=O)Nc1ccc(-c2cnc3ccc(C(=O)N(C)c4ccc(F)c(OC)c4)cn23)cn1 [Compound 45, methyl N-[5-[6-[(4-fluoro-3-methoxy-phenyl)-methyl-carbamoyl]imidazo[1,2-a]pyridin-3-yl]-2-pyridyl]carbamate]
- inhibition at 20 ppm (Pythium ultimum): ≥ 80%
- pest or weed control at 200 ppm (Plasmopara viticola): ≥ 80%
- pest or weed control at 200 ppm (Phytophthora infestans): ≥ 80%

Structure (SMILES): COC(=O)Nc1ccc(-c2cnc3ccc(C(=O)N(C)c4ccc(Cl)c(C)c4)cn23)cn1 [Compound 46, methyl N-[5-[6-[(4-chloro-3-methyl-phenyl)-methyl-carbamoyl]imidazo[1,2-a]pyridin-3-yl]-2-pyridyl]carbamate]
- inhibition at 20 ppm (Pythium ultimum): ≥ 80%
- pest or weed control at 200 ppm (Plasmopara viticola): ≥ 80%
- pest or weed control at 200 ppm (Phytophthora infestans): ≥ 80%

Structure (SMILES): COC(=O)Nc1ccc(-c2cnc3ccc(C(=O)N(C)c4ccc(F)c(C)c4)cn23)cn1 [Compound 48, methyl N-[5-[6-[(4-fluoro-3-methyl-phenyl)-methyl-carbamoyl]imidazo[1,2-a]pyridin-3-yl]-2-pyridyl]carbamate]
- inhibition at 20 ppm (Pythium ultimum): ≥ 80%
- pest or weed control at 200 ppm (Plasmopara viticola): ≥ 80%
- pest or weed control at 200 ppm (Phytophthora infestans): ≥ 80%

Structure (SMILES): COC(=O)Nc1ccc(-c2cnc3ccc(C(=O)N(C)c4ccc(F)c(F)c4)cn23)cn1 [Compound 50, methyl N-[5-[6-[(3,4-difluorophenyl)-methyl-carbamoyl]imidazo[1,2-a]pyridin-3-yl]-2-pyridyl]carbamate]
- inhibition at 20 ppm (Pythium ultimum): ≥ 80%
- pest or weed control at 200 ppm (Plasmopara viticola): ≥ 80%
- pest or weed control at 200 ppm (Phytophthora infestans): ≥ 80%

Structure (SMILES): COC(=O)Nc1ccc(-c2cnc3ccc(C(=O)N(C)c4ccc(C#N)c(OC)c4)cn23)cn1 [Compound 51, methyl N-[5-[6-[(4-cyano-3-methoxy-phenyl)-methyl-carbamoyl]imidazo[1,2-a]pyridin-3-yl]-2-pyridyl]carbamate]
- inhibition at 20 ppm (Pythium ultimum): ≥ 80%
- pest or weed control at 200 ppm (Plasmopara viticola): ≥ 80%
- pest or weed control at 200 ppm (Phytophthora infestans): ≥ 80%

Structure (SMILES): COC(=O)Nc1ccc(-c2cnc3ccc(C(=O)N(C)c4ccc(C#N)c(C)c4)cn23)cn1 [Compound 53, methyl N-[5-[6-[(4-cyano-3-methyl-phenyl)-methyl-carbamoyl]imidazo[1,2-a]pyridin-3-yl]-2-pyridyl]carbamate]
- inhibition at 20 ppm (Pythium ultimum): ≥ 80%
- pest or weed control at 200 ppm (Plasmopara viticola): ≥ 80%
- pest or weed control at 200 ppm (Phytophthora infestans): ≥ 80%

Structure (SMILES): COC(=O)Nc1ccc(-c2cnc3ccc(C(=O)N(C)c4cc(OC)cc(OC)c4)cn23)cn1 [Compound 58, methyl N-[5-[6-[(3,5-dimethoxyphenyl)-methyl-carbamoyl]imidazo[1,2-a]pyridin-3-yl]-2-pyridyl]carbamate]
- inhibition at 20 ppm (Pythium ultimum): ≥ 80%
- pest or weed control at 200 ppm (Plasmopara viticola): ≥ 80%

Structure (SMILES): COC(=O)Nc1ccc(-c2cnc3ccc(C(=O)N(C)c4ccccc4)cn23)cn1 [Compound 61, methyl N-[5-[6-[methyl(phenyl)carbamoyl]imidazo[1,2-a]pyridin-3-yl]-2-pyridyl]carbamate]
- inhibition at 20 ppm (Pythium ultimum): ≥ 80%
- pest or weed control at 200 ppm (Plasmopara viticola): ≥ 80%

Structure (SMILES): COC(=O)Nc1ccc(-c2cnc3ccc(C(=O)N(C)c4ccc(C)cc4)cn23)cn1 [Compound 64, methyl N-[5-[6-[methyl (p-tolyl)carbamoyl]imidazo [1,2-a]pyridin-3-yl]-2-pyridyl]carbamate]
- inhibition at 20 ppm (Pythium ultimum): ≥ 80%
- pest or weed control at 200 ppm (Plasmopara viticola): ≥ 80%

Structure (SMILES): CCC(=O)Nc1ccc(-c2cnc3ccc(C(=O)N(C)c4ccc(F)c(C)c4)cn23)cn1 [Compound 78, N-(4-fluoro-3-methyl-phenyl)-N-methyl-3-[6-(propanoylamino)-3-pyridyl]imidazo[1,2-a]pyridine-6-carboxamide]
- inhibition at 20 ppm (Pythium ultimum): ≥ 80%
- pest or weed control at 200 ppm (Plasmopara viticola): ≥ 80%

Structure (SMILES): CCCN(C(=O)c1ccc2ncc(-c3ccc(NC(=O)OC)nc3)n2c1)c1ccc(Cl)c(C)c1 [Compound 126, methyl N-[5-[6-[(4-chloro-3-methyl-phenyl)-propyl-carbamoyl]imidazo[1,2-a]pyridin-3-yl]-2-pyridyl]carbamate]
- inhibition at 20 ppm (Pythium ultimum): ≥ 80%
- pest or weed control at 200 ppm (Plasmopara viticola): ≥ 80%

Structure (SMILES): CCN(C(=O)c1ccc2ncc(-c3ccc(NC(=O)OC)nc3)n2c1)c1ccccc1 [Compound 137, methyl N-[5-[6-[ethyl(phenyl)carbamoyl]imidazo[1,2-a]pyridin-3-yl]-2-pyridyl]carbamate]
- inhibition at 20 ppm (Pythium ultimum): ≥ 80%
- pest or weed control at 200 ppm (Plasmopara viticola): ≥ 80%

Structure (SMILES): COCCN(C(=O)c1cc(C)c2ncc(-c3ccc(NC(=O)OC)nc3)n2c1)c1ccc(F)c(OC)c1 [Compound 177, methyl N-[5-[6-[(4-fluoro-3-methoxy-phenyl)-(2-methoxyethyl)carbamoyl]-8-methyl-imidazo[1,2-a]pyridin-3-yl]-2-pyridyl]carbamate]
- pest or weed control at 200 ppm (Plasmopara viticola): ≥ 80%
- pest or weed control at 200 ppm (Phytophthora infestans): ≥ 80%
